In test [1] the target is T1, 5-hydroxytryptamine receptor 4 (Homo sapiens, UniProt Q13639). The test is described as follows: Agonist activity at full-length human 5-HT4R stably expressed in HEK293 cells assessed as increase in intracellular cAMP level incubated for 30 mins under dark condition by reporter gene assay relative to control. Format: functional, cell-based. A general note: Changes in cAMP serve as a functional read-out for many G protein-coupled receptors.

The target of test [2] is T1, 5-hydroxytryptamine receptor 4. The test is described as follows: Agonist activity at full-length human 5-HT4R stably expressed in HEK293 cells assessed as increase in intracellular cAMP level incubated for 30 mins under dark condition by reporter gene assay. It is filed as functional, cell-based.

T1 sequence (Q13639 whole entry): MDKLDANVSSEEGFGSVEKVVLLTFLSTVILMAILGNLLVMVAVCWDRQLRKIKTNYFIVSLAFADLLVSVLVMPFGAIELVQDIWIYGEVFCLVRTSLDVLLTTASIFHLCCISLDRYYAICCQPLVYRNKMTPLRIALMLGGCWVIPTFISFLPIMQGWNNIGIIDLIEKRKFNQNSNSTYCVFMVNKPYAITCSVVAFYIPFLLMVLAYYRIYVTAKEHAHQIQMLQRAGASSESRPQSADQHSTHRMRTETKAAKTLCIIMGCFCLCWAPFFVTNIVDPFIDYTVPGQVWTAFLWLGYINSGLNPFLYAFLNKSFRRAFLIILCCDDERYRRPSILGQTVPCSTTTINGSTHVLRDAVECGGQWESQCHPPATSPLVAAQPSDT

A word on the EC50: it is the concentration that produces a half-maximal response. In the case of `CC(C)(C(=O)NCCOCCOCCNC(=O)CCN1CCC(NC(=O)c2cc(Cl)c(N)c3c2OCC3)CC1)C(=O)NCCOCCOCCNC(=O)CCN1CCC(NC(=O)c2cc(Cl)c(N)c3c2OCC3)CC1`, in test [1] (filed as agonist), the Efficacy was found to be 129%. For the same compound, in test [2], the EC50 was 5.46 nM.

With `Nc1c(Cl)cc(C(=O)NC2CCN(CCC(=O)NCCOCCNC(=O)NCCOCCNC(=O)CCN3CCC(NC(=O)c4cc(Cl)c(N)c5c4OCC5)CC3)CC2)c2c1CCO2`, in test [1] (filed as agonist), the Efficacy came out at 123%. Further, the EC50 in test [2] stood at 0.85 nM.

As to `Nc1c(Cl)cc(C(=O)NC2CCN(CCC(=O)NCCOCCOCCNC(=O)CCC(=O)NCCOCCOCCNC(=O)CCN3CCC(NC(=O)c4cc(Cl)c(N)c5c4OCC5)CC3)CC2)c2c1CCO2`, the Efficacy in test [1] (filed as agonist) is 116%. The EC50 in test [2] is 4.71 nM.

As to `O=C(CCN1CCC(COc2noc3c(O[C@@H]4CCOC4)cccc23)CC1)NCCOCCOCCNC(=O)NCCCCNC(=O)NCCOCCOCCNC(=O)CCN1CCC(COc2noc3cccc(O[C@@H]4CCOC4)c23)CC1`, in test [1], the Efficacy was determined as 0.16%. Further, in test [2], the EC50 was more than 10000 nM.

As to `Nc1c(Cl)cc(C(=O)NC2CCN(CCCCCC(=O)NCCOCCOCCNC(=O)NCCCCNC(=O)NCCOCCOCCNC(=O)CCCCCN3CCC(NC(=O)c4cc(Cl)c(N)c5c4OCC5)CC3)CC2)c2c1CCO2`, the Efficacy in test [1] (filed as agonist) worked out at 106%. Also, the EC50 in test [2] was 3.81 nM.

On to `Nc1c(Cl)cc(C(=O)NC2CCN(CCC(=O)NCCOCCOCCNC(=O)NCCOCCOCCNC(=O)CCN3CCC(NC(=O)c4cc(Cl)c(N)c5c4OCC5)CC3)CC2)c2c1CCO2`, for which, in test [1] (filed as agonist), the Efficacy was 103%. The EC50 in test [2] was 0.95 nM.

As for `Nc1c(Cl)cc(C(=O)NC2CCN(CCC(=O)NCCOCCOCCOCCNC(=O)NCCOCCOCCOCCNC(=O)CCN3CCC(NC(=O)c4cc(Cl)c(N)c5c4OCC5)CC3)CC2)c2c1CCO2`, in test [1] (filed as agonist), the Efficacy was 119%. In test [2], the EC50 was determined as 1.07 nM.

On to `Nc1c(Cl)cc(C(=O)NC2CCN(CCC(=O)NCCOCCOCCNC(=O)C(O)C(O)C(=O)NCCOCCOCCNC(=O)CCN3CCC(NC(=O)c4cc(Cl)c(N)c5c4OCC5)CC3)CC2)c2c1CCO2` (stereo unspecified), for which the Efficacy in test [1] (filed as agonist) came to 123%. Besides, the EC50 in test [2] worked out at 3.28 nM.

As for `CC(C)n1nc(-c2nnc(C3CCN(CCC(=O)NCCOCCOCCNC(=O)NCCCCNC(=O)NCCOCCOCCNC(=O)CCN4CCC(c5nnc(-c6nn(C(C)C)c7ccccc67)o5)CC4)CC3)o2)c2ccccc21`, in test [1] (filed as agonist), the Efficacy stood at 47.8%. For the same compound, in test [2], the EC50 is more than 10000 nM.

In the case of `Nc1c(Cl)cc(C(=O)NC2CCN(CCC(=O)NCCCCCCCCNC(=O)NCCCCNC(=O)NCCCCCCCCNC(=O)CCN3CCC(NC(=O)c4cc(Cl)c(N)c5c4OCC5)CC3)CC2)c2c1CCO2`, the Efficacy in test [1] (filed as agonist) was 125%. In addition, the EC50 in test [2] was found to be 747 nM.

Consider `Nc1c(Cl)cc(C(=O)NC2CCN(CCC(=O)NCCOCCOCCNC(=O)C3(C(=O)NCCOCCOCCNC(=O)CCN4CCC(NC(=O)c5cc(Cl)c(N)c6c5OCC6)CC4)CCCC3)CC2)c2c1CCO2`, for which the Efficacy in test [1] (filed as agonist) was found to be 130%. Further, the EC50 in test [2] is 2.99 nM.

On to `Nc1c(Cl)cc(C(=O)NC2CCN(CCC(=O)NCCCCCCCCNC(=O)NCCCCCCNC(=O)NCCCCCCCCNC(=O)CCN3CCC(NC(=O)c4cc(Cl)c(N)c5c4OCC5)CC3)CC2)c2c1CCO2`, for which the Efficacy in test [1] (filed as agonist) came out at 90.9%. Besides, the EC50 in test [2] was 17.6 nM.

Turning to `Nc1c(Cl)cc(C(=O)NC2CCN(CCC(=O)NCCOCCOCCNC(=O)N3CC4(C3)CN(C(=O)NCCOCCOCCNC(=O)CCN3CCC(NC(=O)c5cc(Cl)c(N)c6c5OCC6)CC3)C4)CC2)c2c1CCO2`, the Efficacy in test [1] (filed as agonist) was 122%. The EC50 in test [2] is 11.4 nM.

In the case of `Nc1c(Cl)cc(C(=O)NC2CCN(CCC(=O)NCCOCCOCCNC(=O)/C=C/C(=O)NCCOCCOCCNC(=O)CCN3CCC(NC(=O)c4cc(Cl)c(N)c5c4OCC5)CC3)CC2)c2c1CCO2`, the Efficacy in test [1] (filed as agonist) worked out at 98%. Also, in test [2], the EC50 stood at 6.69 nM.

In the case of `Nc1c(Cl)cc(C(=O)NC2CCN(CCC(=O)NCCOCCOCCNC(=O)Nc3ccc(NC(=O)NCCOCCOCCNC(=O)CCN4CCC(NC(=O)c5cc(Cl)c(N)c6c5OCC6)CC4)cc3)CC2)c2c1CCO2`, the Efficacy in test [1] (filed as agonist) amounted to 89.8%. The EC50 in test [2] came to 10.5 nM.

With `Nc1c(Cl)cc(C(=O)NC2CCN(CCC(=O)NCCOCCOCCNC(=O)C3(C(=O)NCCOCCOCCNC(=O)CCN4CCC(NC(=O)c5cc(Cl)c(N)c6c5OCC6)CC4)CCCCC3)CC2)c2c1CCO2`, in test [1] (filed as agonist), the Efficacy came out at 116%. For the same compound, the half-maximal effective concentration (EC50) in test [2] stood at 3 nM.

In the case of `COc1cc(N)c(Cl)cc1C(=O)NC1CCN(CCC(=O)NCCOCCOCCNC(=O)NCCCCNC(=O)NCCOCCOCCNC(=O)CCN2CCC(NC(=O)c3cc(Cl)c(N)cc3OC)CC2)CC1`, the Efficacy in test [1] (filed as agonist) came out at 102%. In test [2], the EC50 came out at 43.6 nM.

Regarding `Nc1c(Cl)cc(C(=O)NC2CCN(CCC(=O)NCCOCCOCCNC(=O)N[C@H]3C[C@H](NC(=O)NCCOCCOCCNC(=O)CCN4CCC(NC(=O)c5cc(Cl)c(N)c6c5OCC6)CC4)C3)CC2)c2c1CCO2`, in test [1] (filed as agonist), the Efficacy amounted to 115%. Further, in test [2], the EC50 is 2.66 nM.

Regarding `Nc1c(Cl)cc(C(=O)NC2CCN(CCC(=O)NCCOCCOCCOCCNC(=O)NCCCCNC(=O)NCCOCCOCCOCCNC(=O)CCN3CCC(NC(=O)c4cc(Cl)c(N)c5c4OCC5)CC3)CC2)c2c1CCO2`, the Efficacy in test [1] (filed as agonist) was 125%. For the same compound, the EC50 in test [2] was determined as 6.71 nM.

With `Nc1c(Cl)cc(C(=O)NC2CCN(CCNC(=O)CCOCCOCCNC(=O)NCCCCNC(=O)NCCOCCOCCNC(=O)CCN3CCC(NC(=O)c4cc(Cl)c(N)c5c4OCC5)CC3)CC2)c2c1CCO2`, in test [1] (filed as agonist), the Efficacy worked out at 89.7%. For the same compound, the concentration giving a half-maximal response (EC50) in test [2] came out at 5.18 nM.

In the case of `Nc1c(Cl)cc(C(=O)NC2CCN(CCC(=O)NCCOCCOCCNC(=O)C3(C(=O)NCCOCCOCCNC(=O)CCN4CCC(NC(=O)c5cc(Cl)c(N)c6c5OCC6)CC4)CCC3)CC2)c2c1CCO2`, the Efficacy in test [1] (filed as agonist) was determined as 122%. Further, the concentration giving a half-maximal response (EC50) in test [2] amounted to 8.05 nM.

Take `Nc1c(Cl)cc(C(=O)NC2CCN(CCC(=O)NCCOCCOCCNC(=O)C3(C(=O)NCCOCCOCCNC(=O)CCN4CCC(NC(=O)c5cc(Cl)c(N)c6c5OCC6)CC4)CC3)CC2)c2c1CCO2`: the Efficacy in test [1] (filed as agonist) stood at 128%. In test [2], the 50% effective concentration (EC50) came out at 2.5 nM.

With `Nc1c(Cl)cc(C(=O)NC2CCN(CCC(=O)NCCOCCOCCNC(=O)N[C@H]3CC[C@@H](NC(=O)NCCOCCOCCNC(=O)CCN4CCC(NC(=O)c5cc(Cl)c(N)c6c5OCC6)CC4)CC3)CC2)c2c1CCO2`, the Efficacy in test [1] (filed as agonist) amounted to 108%. Besides, in test [2], the EC50 is 2.08 nM.

As for `Nc1c(Cl)cc(C(=O)NC2CCN(CCC(=O)NCCOCCOCCNC(=O)N[C@H]3CC[C@H](NC(=O)NCCOCCOCCNC(=O)CCN4CCC(NC(=O)c5cc(Cl)c(N)c6c5OCC6)CC4)CC3)CC2)c2c1CCO2`, the Efficacy in test [1] (filed as agonist) worked out at 122%. In test [2], the EC50 came to 6.82 nM.

As for `Nc1c(Cl)cc(C(=O)NC2CCN(CCCC(=O)NCCOCCOCCNC(=O)NCCCCNC(=O)NCCOCCOCCNC(=O)CCCN3CCC(NC(=O)c4cc(Cl)c(N)c5c4OCC5)CC3)CC2)c2c1CCO2`, the Efficacy in test [1] (filed as agonist) is 92.4%. In addition, the EC50 in test [2] came out at 2.33 nM.

As for `Nc1c(Cl)cc(C(=O)NC2CCN(CCCCC(=O)NCCOCCOCCNC(=O)NCCCCNC(=O)NCCOCCOCCNC(=O)CCCCN3CCC(NC(=O)c4cc(Cl)c(N)c5c4OCC5)CC3)CC2)c2c1CCO2`, the Efficacy in test [1] (filed as agonist) is 102%. Further, the EC50 in test [2] turned out to be 3.02 nM.

Take `Nc1c(Cl)cc(C(=O)NCCC2CCN(CCC(=O)NCCOCCOCCNC(=O)NCCCCNC(=O)NCCOCCOCCNC(=O)CCN3CCC(CCNC(=O)c4cc(Cl)c(N)c5c4OCC5)CC3)CC2)c2c1CCO2`: the Efficacy in test [1] (filed as agonist) came out at 102%. For the same compound, the half-maximal effective concentration (EC50) in test [2] came out at 81.4 nM.

As for `Nc1c(Cl)cc(C(=O)NCC2CCN(CCCCCC(=O)NCCOCCOCNC(=O)N[C@H]3CC[C@H](NC(=O)NCOCCOCCNC(=O)CCCCCN4CCC(CNC(=O)c5cc(Cl)c(N)c6c5OCC6)CC4)CC3)CC2)c2c1CCO2`, the Efficacy in test [1] (filed as agonist) was 104%. For the same compound, the EC50 in test [2] was found to be 1.39 nM.
